Data on 1 compound can be found in patent US9844529B2, “Combination therapy for ovarian cancer” (Eli Lilly And Company, priority 2011, dated 2017).

One data set concerns SK-OV-3x.luc xenografts. Description: SK-OV-3x.luc ovarian cancer xenograft tumor growth inhibition in mice. Type of data set: in vivo, mouse. The procedure: (§1) Human tumor mouse xenografts are generated from early passages of the following ovarian cancer cell lines: A-2780 (National Cancer Institute), SK-OV-3x.luc (SK-OV-3 cell line modified to express luciferase (#1, medium expressing), Indiana University). A-2780 ovarian cancer cells are grown in RPMI 1640 with L-glutamine, 25 mM HEPES (Invitrogen 22400-089) supplemented with 1 mM pyruvate and 10% Certified Fetal Bovine Serum (Gibco 16000, FBS). SK-OV-3x.luc cells (ovarian cancer cells) are grown in McCoy's 5A Medium with L-glutamine (Invitrogen 16600-082) supplemented with non-essential amino acids, 1 mM pyruvate and 10% FBS. Harlan athymic nude mice (6-7 weeks old) are housed with ad libitum feed and water, and are acclimated for one week prior to subcutaneous xenograft implantation in the right rear flank with a defined number of cells. A-2780 or SK-OV-3x.luc implants consist of 0.1 mL of cells (2 or 5×10^6 cells, respectively) in serum-free media with 0.1 mL MATRIGEL® (BD Biosciences) for a final volume of 0.2 mL. Tumors are allowed to develop to a volume of 120-150 mm^3 and are then randomized into treatment groups to attain a consistent average tumor size across all groups. Each treatment group of the SK-OV-3x.luc study is 12 animals; each group of the A-2780 study is 20 animals. Compound A is prepared weekly in hydroxyethylcellulose (HEC) 1%/TWEEN® 80 0.25%/Antifoam 0.05% (HEC/TWEEN®) and stored at 4° C. […] Compound A, 30 mg/kg, oral, TID×21/gemcitabine+cisplatin, 100+4 mg/kg, IP, QW×3* • *SK-OV-3x.luc study only Tumor volume and body weight are recorded and analyzed twice weekly using a data capture and analysis tool. Tumor volume (mm^3) is estimated by using the formula: ν=l×w^2×0.536 where l=larger of measured diameter and w=smaller of perpendicular diameter. Antitumor activity is calculated as a percent reduction of treated (T) tumor volume relative to untreated control (C) tumor volume [1−(T/C)]×100. […]

The next data set deals with A-2780 xenografts. Description: A-2780 ovarian cancer xenograft tumor growth inhibition in mice. It counts as in vivo, mouse. The note with it: Compound A 10 mg/kg oral TID×21 alone. As to the method: as §1, with “cells.” for “cells. A-2780 or SK-OV-3x.luc implants consist of 0.1 mL of cells (2 or 5×10^6 cells, respectively) in serum-free media with 0.1 mL MATRIGEL® (BD Biosciences) for a final volume of 0.2 mL. Tumors are allowed to develop to a volume of 120-150 mm^3 and are then randomized into treatment groups to attain a consistent average tumor size across all groups. Each treatment group of the SK-OV-3x.luc study is 12 animals; each group of the A-2780 study is 20 animals. Compound A is prepared weekly in hydroxyethylcellulose (HEC) 1%/TWEEN® 80 0.25%/Antifoam 0.05% (HEC/TWEEN®) and stored at 4° C.”

Structures are written as SMILES.

Turning to `CC(C)(C)Cn1c(N)nc2ccc(-c3nc(C(C)(C)C)[nH]c3-c3ccc(F)cc3)nc21` [Compound A, 5-[2-tert-Butyl-5-(4-fluorophenyl)-1H-imidazol-4-yl]-3-(2,2-dimethylpropyl)imidazo[4,5-b]pyridin-2-amine dimethanesulfonate], the “Max % wt. loss” value was determined as 1.4% in the data set on SK-OV-3x.luc xenografts (Compound A 30 mg/kg oral TID×21 alone, SK-OV-3x.luc) and 3.0% in the data set with A-2780 xenografts. The final tumor volume is on record as 522 ± 54 mm^3 in the data set with SK-OV-3x.luc xenografts (Compound A 30 mg/kg oral TID×21 alone, SK-OV-3x.luc, 3 weeks) and 1828 ± 208 mm^3 with A-2780 xenografts (3 weeks). The “final average tumor volume compared with vehicle control” value in the data set on SK-OV-3x.luc xenografts (Compound A alone, 3 weeks, SK-OV-3x.luc xenografts) is reported as “not significantly different from vehicle control”.
